Literature values in US8716506B2, “Xylitol esters and ethers applied as alternative emulsifiers, solvents, co-emulsifiers and preservative systems for pharmaceutical and cosmetic products” (priority 2008, dated 2014).

Key:
[1] = system: S. pneumoniae; conditions: concentration of 5%
[2] = system: Streptococcus pneumoniae; conditions: concentration of 5%
[3] = system: Haemophilus influenzae; conditions: concentration of 5%

SMILES: OC[C@@H](O)[C@H](O)[C@@H](O)CO [xylitol]
- adherence levels in epithelial nasopharyngeal cells [1]: reduced the adherence levels
- growth inhibition [2]: inhibited the growth
- adherence levels in epithelial nasopharyngeal cells [3]: reduced the adherence levels

SMILES: C=O [formaldehyde, Formaldehyde (methanal)]
- volunteers with contact hypersensitizing (clinical tests, even in concentrations of 30 ppm of free formaldehyde): 1-9%

SMILES: CC1(C)C(=O)N(CO)C(=O)N1CO [DMDM hydantoin, 1,3-Dimethylo1-5,5-dimethyl hydantoin]
- volunteers with hypersensitivity in contact test (De Groot and collaborators): 57%
